Measured values taken from patent publication US12208088B2 (Genentech, Inc., priority 2018, dated 2025).

Biological target: HPK1 (Homo sapiens (Human), UniProt Q92918)
Assay: HPK1 Lantha binding assay ("Lanth")
Details: binding assays; Morrison Ki fit
How it was run: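 TR-FRET binding competition using 2 nM HPK1, 2 nM Eu-anti-GST antibody and 15 nM Tracer222 at 23 °C. Compound was incubated 1 h with enzyme and antibody, then 1 h after tracer addition, with an 11-point 5-fold dilution series. Ki obtained from a Morrison fit that corrects for tracer concentration and Kd.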

HPK1, sequence (Q92918 1-346 limits assumed): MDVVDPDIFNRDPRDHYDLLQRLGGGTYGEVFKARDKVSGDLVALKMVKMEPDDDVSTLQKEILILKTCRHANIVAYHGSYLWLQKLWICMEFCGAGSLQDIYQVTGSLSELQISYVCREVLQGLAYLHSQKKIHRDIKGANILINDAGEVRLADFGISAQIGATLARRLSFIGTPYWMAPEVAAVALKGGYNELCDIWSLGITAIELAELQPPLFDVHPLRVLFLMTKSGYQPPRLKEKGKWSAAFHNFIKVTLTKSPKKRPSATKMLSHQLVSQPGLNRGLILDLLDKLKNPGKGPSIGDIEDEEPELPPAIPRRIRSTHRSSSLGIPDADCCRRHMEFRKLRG

O=C(c1cccc(-c2cnc3c(c2)C2(CC2)CN3)c1F)N1CCC12COC2 [Compound 147, (3-(1′,2′-dihydrospiro[cyclopropane-1,3′-pyrrolo[2,3-b]pyridin]-5′-yl)-2-fluorophenyl)(6-oxa-1-azaspiro[3.3]heptan-1-yl)methanone]
Ki: 61.3 nM

Cc1cnn([C@H]2CC[C@]3(CC2)CNc2ncc(-c4ccc(N)c(C(=O)N(C)C)c4F)c(Cl)c23)c1 [Compound 148a, 6-Amino-3-((1s,4s)-4′-chloro-4-(4-methyl-1H-pyrazol-1-yl)-1′,2′-dihydrospiro[cyclohexane-1,3′-pyrrolo[2,3-b]pyridin]-5′-yl)-2-fluoro-N,N-dimethylbenzamide]
Ki: 2.21 nM

CN(C)C(=O)c1cccc(-c2cnc3c(c2)C2(CC2)CN3)c1F [Compound 149, 3-(1′,2′-dihydrospiro[cyclopropane-1,3′-pyrrolo[2,3-b]pyridin]-5′-yl)-2-fluoro-N,N-dimethylbenzamide]
Ki: 33.5 nM

N#C[C@H]1CCCN1C(=O)c1cccc(-c2cnc3c(c2)C2(CC2)CN3)c1F [Compound 154a, (R)-1-(3-(1′,2′-dihydrospiro[cyclopropane-1,3′-pyrrolo[2,3-b]pyridin]-5′-yl)-2-fluorobenzoyl)pyrrolidine-2-carbonitrile]
Ki: 14.2 nM

Cc1ccnn1[C@H]1CC[C@@]2(CNc3ncc(-c4ccc(N)c(C(=O)N(C)C)c4F)c(Cl)c32)C1 [Compound 160a, 6-Amino-3-((1R,3S)-4′-chloro-3-(5-methyl-1H-pyrazol-1-yl)-1′,2′-dihydrospiro[cyclopentane-1,3′-pyrrolo[2,3-b]pyridin]-5′-yl)-2-fluoro-N,N-dimethylbenzamide]
Ki: 56.5 nM

CN(Cc1cnn(C)c1)C(=O)c1c(N)ccc(-c2cnc3c(c2Cl)C2(CC2)CN3)c1F [Compound 166, 6-Amino-3-(4′-chloro-1′,2′-dihydrospiro[cyclopropane-1,3′-pyrrolo[2,3-b]pyridin]-5′-yl)-2-fluoro-N-methyl-N-((1-methyl-1H-pyrazol-4-yl)methyl)benzamide]
Ki: 4.39 nM

CN(C)C(=O)c1c(N)ccc(-c2cnc3c(c2Cl)[C@]2(CC[C@H](n4nccc4C(F)(F)F)C2)CN3)c1F [Compound 169a, 6-Amino-3-((1R,3S)-4′-chloro-3-(5-(trifluoromethyl)-1H-pyrazol-1-yl)-1′,2′-dihydrospiro[cyclopentane-1,3′-pyrrolo[2,3-b]pyridin]-5′-yl)-2-fluoro-N,N-dimethylbenzamide]
Ki: 54 nM

O=C(c1cccc(-c2cnc3c(c2)C2(CC2)CN3)c1F)N1CCc2ccccc21 [Compound 172, (3-(1′,2′-dihydrospiro[cyclopropane-1,3′-pyrrolo[2,3-b]pyridin]-5′-yl)-2-fluorophenyl)(indolin-1-yl)methanone]
Ki: 319 nM

O=C(c1cccc(-c2cnc3c(c2)C2(CC2)CN3)c1F)N1CCc2ccncc21 [Compound 176, (2,3-dihydro-1H-pyrrolo[2,3-c]pyridin-1-yl)(3-(1′,2′-dihydrospiro[cyclopropane-1,3′-pyrrolo[2,3-b]pyridin]-5′-yl)-2-fluorophenyl)methanone]
Ki: 127 nM

OCc1ccc(-c2cnc3c(c2Cl)C2(CC=CC2)CN3)cc1 [Compound 181, (4-(4′-Chloro-1′,2′-dihydrospiro[cyclopentane-1,3′-pyrrolo[2,3-b]pyridin]-3-en-5′-yl)phenyl)methanol]
Ki: 198 nM

CC(C)(O)c1ccc(-c2cnc3c(c2Cl)C2(CC=CC2)CN3)cc1 [Compound 182, 2-(4-(4′-Chloro-1′,2′-dihydrospiro[cyclopentane-1,3′-pyrrolo[2,3-b]pyridin]-3-en-5′-yl)phenyl)propan-2-ol]
Ki: 829 nM

CS(=O)(=O)c1cccc(-c2cnc3c(c2Cl)C2(CC=CC2)CN3)c1 [Compound 183]
Ki: 30.3 nM

CCS(=O)(=O)c1cccc(-c2cnc3c(c2Cl)C2(CC=CC2)CN3)c1 [Compound 184, 4′-Chloro-5′-(3-(ethylsulfonyl)phenyl)-1′,2′-dihydrospiro[cyclopentane-1,3′-pyrrolo[2,3-b]pyridin]-3-ene]
Ki: 50.3 nM

CNS(=O)(=O)c1cccc(-c2cnc3c(c2Cl)C2(CC=CC2)CN3)c1 [Compound 185, 3-(4′-Chloro-1′,2′-dihydrospiro[cyclopentane-1,3′-pyrrolo[2,3-b]pyridin]-3-en-5′-yl)-N-methylbenzenesulfonamide]
Ki: 75.8 nM

CS(=O)(=O)c1ccc(-c2cnc3c(c2Cl)C2(CC=CC2)CN3)cc1 [Compound 186, 4′-Chloro-5′-(4-(methylsulfonyl)phenyl)-1′,2′-dihydrospiro[cyclopentane-1,3′-pyrrolo[2,3-b]pyridin]-3-ene]
Ki: 276 nM

CCS(=O)(=O)c1ccc(-c2cnc3c(c2Cl)C2(CC=CC2)CN3)cc1 [Compound 187, 4′-Chloro-5′-(4-(ethylsulfonyl)phenyl)-1′,2′-dihydrospiro[cyclopentane-1,3′-pyrrolo[2,3-b]pyridin]-3-ene]
Ki: 300 nM

CNS(=O)(=O)c1ccc(-c2cnc3c(c2Cl)C2(CC=CC2)CN3)cc1 [Compound 188, 4-(4′-Chloro-1′,2′-dihydrospiro[cyclopentane-1,3′-pyrrolo[2,3-b]pyridin]-3-en-5′-yl)-N-methylbenzenesulfonamide]
Ki: 210 nM

CCNS(=O)(=O)c1ccc(-c2cnc3c(c2Cl)C2(CC=CC2)CN3)cc1 [Compound 189, 4-(4′-Chloro-1′,2′-dihydrospiro[cyclopentane-1,3′-pyrrolo[2,3-b]pyridin]-3-en-5′-yl)-N-ethylbenzenesulfonamide]
Ki: 315 nM

N#Cc1cccc(-c2cnc3c(c2Cl)C2(CC=CC2)CN3)c1 [Compound 190, 3-(4′-Chloro-1′,2′-dihydrospiro[cyclopentane-1,3′-pyrrolo[2,3-b]pyridin]-3-en-5′-yl)benzonitrile]
Ki: 359 nM

CN(C)C(=O)c1c(N)ccc(-c2cnc3c(c2Cl)[C@]2(CC[C@@](C)(O)CC2)CN3)c1F [Compound 194a, 6-Amino-3-((1r,4r)-4′-chloro-4-hydroxy-4-methyl-1′,2′-dihydrospiro[cyclohexane-1,3′-pyrrolo[2,3-b]pyridin]-5′-yl)-2-fluoro-N,N-dimethylbenzamide]
Ki: 30.4 nM

CN(C)C(=O)c1c(N)ccc(-c2cnc3c(c2Cl)[C@]2(CC[C@](C)(O)CC2)CN3)c1F [Compound 194b, 6-Amino-3-((1s,4s)-4′-chloro-4-hydroxy-4-methyl-1′,2′-dihydrospiro[cyclohexane-1,3′-pyrrolo[2,3-b]pyridin]-5′-yl)-2-fluoro-N,N-dimethylbenzamide]
Ki: 8.36 nM

CN(C)C(=O)c1c(N)ccc(-c2cnc3c(c2Cl)C2(CCCCC2)CN3)c1F [Compound 200, 6-Amino-3-(4′-chloro-1′,2′-dihydrospiro[cyclohexane-1,3′-pyrrolo[2,3-b]pyridin]-5′-yl)-2-fluoro-N,N-dimethylbenzamide]
Ki: 4.76 nM

O=S(=O)(c1ccc(-c2cnc3c(c2Cl)C2(CC=CC2)CN3)cc1)n1cccn1 [Compound 203, 5′-(4-((1H-Pyrazol-1-yl)sulfonyl)phenyl)-4′-chloro-1′,2′-dihydrospiro[cyclopentane-1,3′-pyrrolo[2,3-b]pyridin]-3-ene]
Ki: 885 nM

OCC1(c2ccc(-c3cnc4c(c3Cl)C3(CC=CC3)CN4)cc2)CC1 [Compound 204, (1-(4-(4′-Chloro-1′,2′-dihydrospiro[cyclopentane-1,3′-pyrrolo[2,3-b]pyridin]-3-en-5′-yl)phenyl)cyclopropyl)methanol]
Ki: 285 nM

CN(C)C(=O)c1ccc(-c2cnc3c(c2Cl)C2(CC=CC2)CN3)cc1F [Compound 205, 4-(4′-Chloro-1′,2′-dihydrospiro[cyclopentane-1,3′-pyrrolo[2,3-b]pyridin]-3-en-5′-yl)-2-fluoro-N,N-dimethylbenzamide]
Ki: 267 nM

CN(C)C(=O)c1ccc(-c2cnc3c(c2Cl)C2(CC=CC2)CN3)c(F)c1 [Compound 206, 4-(4′-Chloro-1′,2′-dihydrospiro[cyclopentane-1,3′-pyrrolo[2,3-b]pyridin]-3-en-5′-yl)-3-fluoro-N,N-dimethylbenzamide]
Ki: 436 nM

O=S(=O)(Nc1ccc(-c2cnc3c(c2Cl)C2(CC=CC2)CN3)cc1)C1CC1 [Compound 207, N-(4-(4′-Chloro-1′,2′-dihydrospiro[cyclopentane-1,3′-pyrrolo[2,3-b]pyridin]-3-en-5′-yl)phenyl)cyclopropanesulfonamide]
Ki: 87 nM

O=S1(=O)CCCN1c1ccc(-c2cnc3c(c2Cl)C2(CC=CC2)CN3)cc1 [Compound 208, 2-(4-(4′-Chloro-1′,2′-dihydrospiro[cyclopentane-1,3′-pyrrolo[2,3-b]pyridin]-3-en-5′-yl)phenyl)isothiazolidine 1,1-dioxide]
Ki: 201 nM

O=S(=O)(Nc1cccc(-c2cnc3c(c2Cl)C2(CC=CC2)CN3)c1)C1CC1 [Compound 209, N-(3-(4′-Chloro-1′,2′-dihydrospiro[cyclopentane-1,3′-pyrrolo[2,3-b]pyridin]-3-en-5′-yl)phenyl)cyclopropanesulfonamide]
Ki: 199 nM

CS(=O)(=O)Nc1cccc(-c2cnc3c(c2Cl)C2(CC=CC2)CN3)c1 [Compound 210, N-(3-(4′-Chloro-1′,2′-dihydrospiro[cyclopentane-1,3′-pyrrolo[2,3-b]pyridin]-3-en-5′-yl)phenyl)methanesulfonamide]
Ki: 70.8 nM

CC(=O)NCc1cccc(-c2cnc3c(c2Cl)C2(CC=CC2)CN3)c1 [Compound 211, N-(3-(4′-Chloro-1′,2′-dihydrospiro[cyclopentane-1,3′-pyrrolo[2,3-b]pyridin]-3-en-5′-yl)benzyl)acetamide]
Ki: 145 nM

CC(=O)NCc1ccc(-c2cnc3c(c2Cl)C2(CC=CC2)CN3)cc1 [Compound 212, N-(4-(4′-Chloro-1′,2′-dihydrospiro[cyclopentane-1,3′-pyrrolo[2,3-b]pyridin]-3-en-5′-yl)benzyl)acetamide]
Ki: 112 nM

CC(=O)NCCc1ccc(-c2cnc3c(c2Cl)C2(CC=CC2)CN3)cc1 [Compound 213, N-(4-(4′-chloro-1′,2′-dihydrospiro[cyclopentane-1,3′-pyrrolo[2,3-b]pyridin]-3-en-5′-yl)phenethyl)acetamide]
Ki: 286 nM
